Source: PMC6294363, “Structural and functional insight into serine hydroxymethyltransferase from Helicobacter pylori” (PLoS ONE, 2018)

Experiments:
[1] = target: T1, HpSHMT (H. pylori SHMT; HP0183 gene product) (Helicobacter pylori, UniProt P56089); assay: absorbance at […] nm of enzyme-PLP-glycine-folate ternary complex; assay type: binding; details: fixed 5 mM glycine with 250 uM PLP and 0-2 mM MTHF, pH 8.0, room temperature
T1 construct: gene glyA; full-length, C-terminal 6xHis tag (pQE60), expressed in E. coli SG 13009; predicted monomer 46,776 Da; homodimer; purified largely as apoprotein
T1 sequence (P56089 1-416): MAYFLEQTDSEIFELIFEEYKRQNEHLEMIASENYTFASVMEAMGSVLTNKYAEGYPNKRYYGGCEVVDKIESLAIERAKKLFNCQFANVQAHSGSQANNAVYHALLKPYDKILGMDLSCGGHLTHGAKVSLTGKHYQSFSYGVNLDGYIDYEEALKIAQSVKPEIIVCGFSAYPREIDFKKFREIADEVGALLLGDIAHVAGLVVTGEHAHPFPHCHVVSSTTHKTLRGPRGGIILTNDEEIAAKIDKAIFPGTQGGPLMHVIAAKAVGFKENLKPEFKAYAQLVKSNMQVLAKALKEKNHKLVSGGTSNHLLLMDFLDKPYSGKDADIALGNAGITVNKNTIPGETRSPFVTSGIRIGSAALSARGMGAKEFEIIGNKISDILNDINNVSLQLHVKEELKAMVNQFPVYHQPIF

[2] = target: T1, HpSHMT (H. pylori SHMT; HP0183 gene product); assay: absorbance at […] nm of enzyme-PLP-glycine-folate ternary complex, MTHF titration; assay type: binding; details: read-out: apparent KFol
[3] = target: T1, HpSHMT (H. pylori SHMT; HP0183 gene product); assay: coupled alcohol dehydrogenase assay, NADH oxidation at […] nm; assay type: biochemical; details: 20 uM SHMT, 250 uM PLP, 250 uM NADH, 50 mM phosphate pH 8.0, room temperature; folate-independent retroaldol cleavage
[4] = target: the molecule itself; assay: crystal structure; HpSHMT apoprotein, hanging drop vapour diffusion, 20% PEG 3350, 0.2 M sodium acetate, room temperature; space group P212121, two monomers in the asymmetric unit; 2.8 Å

NCC(=O)O [glycine]
absorbance at 502 nm of enzyme-PLP-glycine-folate ternary complex [1]: corresponding to the intermediate ternary enzyme-PLP-glycine-folate complex

Nc1nc2c(c(=O)[nH]1)N1CN(c3ccc(C(=O)N[C@@H](CCC(=O)O)C(=O)O)cc3)C[C@H]1CN2 [MTHF]
Kd [2]: 300 µM

C[C@H](O)[C@H](N)C(=O)O [L-allothreonine]
coupled alcohol dehydrogenase assay, NADH oxidation at 340 nm [3]: it is able to transform L-allothreonine to acetaldehyde, thus confirming its activity as SHMT

B1: Serine hydroxymethyltransferase from Helicobacter pylori 26695 (HP0183 gene product) (enzyme, Helicobacter pylori strain 26695, UniProt P56089 1-416, looked up)
chain: T1 sequence (P56089 1-416)
notes: Serine hydroxymethyltransferase (glyA, ORF HP0183) of Helicobacter pylori strain 26695; gene amplified with primers SA36/SA37 (from the ATG to the end of the ORF) and inserted into pQE60; residues 3-416 modelled in the crystal; Homodimer by crystal structure and dynamic light scattering; Predicted mass per monomer 46,776 Da; also called HpSHMT; SHMT; source: E. coli SG 13009 (pREP4), pQE60, …
stoichiometry N [4]: 2
